US20040229205A1, “Compositions for the storage of platelets” (priority 2003, published 2004)

Legend:
[1] = tested on: platelets (adhesion to adventitia of human renal artery); assay: Platelet adhesion assay in microflow chamber on human renal artery section; format: cell-based; conditions: 1.5 mM D-ribose solution, eight days of storage
Procedure: The ability of platelets to aggregate as a measure of function can also be assayed by ability to adhere to and […] on tissue, such as the adventitia and intima of arteries. Normal, healthy, functional platelets will show deposition and attachment onto tissue whereas compromised, poorly functional or nonfunctional platelets will have decreased levels of platelet attachment. Platelet rich plasma (PRP) was prepared from a random donor bag of platelets, which were harvested and resuspended in plasma at a concentration of at least 10^6 platelets per milliliter. On Day 1, the platelets were allowed to stand at room temperature for eight hours and were then tested in the platelet adhesion assay. Fresh frozen human renal artery was sectioned and placed flat on a microscope slide. A microflow chamber was constructed to pull PRP across the section at a defined flow rate and defined shear rate. The direction of flow is adventitia, through the media and intima and into the lumen, as illustrated in FIG. 10. Functional platelets will adhere to the adventitia and form accretion zones that initiate at the adventitia (the outside of the blood vessel) and extend across the media and intima. Non-functional platelets are unable to adhere to the adventitia. Therefore, the adhesion assay is a sensitive test of platelet function. Following the baseline test, a portion of the platelet suspension was set aside as control, without additional solution added. Another portion of the platelets were suspended in a solution containing: [table]

[2] = tested on: platelets (ATP secretion); assay: ATP secretion of stored platelets in response to 10 nM thrombin (luciferin/luciferase); format: cell-based
From the text: Yet another measure of platelet function is the secretion of ATP. Platelets that are able to function well are able to secrete ATP while cells that have already been activated or have lost funciton in other ways cannot secrete ATP.
The platelet dense granules shown in FIG. 1 contain ATP which is released in response to platelet agonists such as thrombin, collagen or adenosine diphosphate (ADP). The release reaction of ATP from platelets serves as another method to monitor platelet function. There are many methods to analyze ATP. A convenient method is the well known luciferin/luciferase reaction (Sigma Chemical, St. Louis). This assay is derived from the light producing system of the firefly. The substrate luciferin, in the presence of ATP, is cleaved by the enzyme luciferase, accompanied by the emission of light. The emitted light is measured by a photomultiplier tube
Platelet suspensions containing about 350 units in 40 μl were mixed with 10 μl luciferin/luciferase reagent. An agonist is injected. As the platelet dense granules release ATP, the bioluminescent reaction occurs, which is measured by the photomultiplier tube. […] The rate of reaction is recorded and as platelet function decays, the rate decays. Total ATP was measured by lysing the cells with Triton and determining ATP content. The results as presented in Table III are expressed as intact rate of ATP secretion.

With `O=C[C@H](O)[C@H](O)[C@H](O)CO` [D-Ribose] the platelet adhesion ([1]; 30 seconds of flow) was “very early platelet adhesion at the adventitia”, the “platelet adhesion and accretion” value ([1]; 2.5 minutes of flow) was “significant platelet adhesion and accretion zones” and the “platelet adhesion and accretion” value ([1]; 4.5 minutes of flow) was “formed a large platelet mass at the adventitia”. For the same compound, the “preservative effect on ATP secretion” value ([2]; 1.5 nM D-Ribose) was “no preservative effect”, the “rise of total ATP content of treated cells” value ([2]; 150 nM D-Ribose) was “more than 10%” and the “Rate of ATP secretion” value ([2]; 150 nM D-Ribose, day 1, 10 nM thrombin) was 1.9. The “Total ATP” value ([2]; 150 nM D-Ribose, day 1, cells lysed with Triton) was 3.0, the “Rate of ATP secretion” value ([2]; 150 nM D-Ribose, day 3, 10 nM thrombin) was 1.9 and the “Total ATP” value ([2]; 150 nM D-Ribose, day 3, cells lysed with Triton) was 3.2. The “Rate of ATP secretion” value ([2]; 150 nM D-Ribose, day 5, 10 nM thrombin) was 1.7, the “Total ATP” value ([2]; 150 nM D-Ribose, day 5, cells lysed with Triton) was 3.4 and the “Rate of ATP secretion” value ([2]; 150 nM D-Ribose, day 7, 10 nM thrombin) was 1.6. The “Total ATP” value ([2]; 150 nM D-Ribose, day 7, cells lysed with Triton) was 3.4, the “effect on ATP secretion” value ([2]; 15 mM D-Ribose) was “no effect” and the toxicity to platelets ([2]; 15 mM D-Ribose) was “toxic to platelets”. For the same compound, the “ATP secretion activity, % of baseline” value ([2]; optimal amounts of D-Ribose (150 nM), day 7) was greater than 80% and the “mean ATP secretion activity, % of baseline” value ([2]; optimal amounts of D-Ribose (150 nM), five days) was 90%.
